# Test system: LOLMU (Lolium multiflorum)
# Experiment: Greenhouse post-emergence herbicidal test, scale 0 to 100, synergism by Colby's equation
# Assay type: in vivo
# From the text: Synergism can be described as an interaction where the combined effect of two or more compounds is greater than the sum of the individual effects of each of the compounds. The presence of a synergistic effect in terms of percent control, between two mixing partners (X and Y) can be calculated using the Colby equation (Colby, S. R., 1967, Calculating Synergistic and Antagonistic Responses in Herbicide Combinations, Weeds, 15, 21-22):
# When the observed combined control effect is greater than the expected (calculated) combined control effect (E), then the combined effect is synergistic.
# However, the weed control afforded by the compounds, mixtures or compositions is not limited to these species. The analysis of synergism or antagonism between the mixtures or compositions was determined using Colby's equation.
# The culture containers used were plastic flowerpots containing loamy sand with approximately 3.0% of humus as the substrate. The seeds of the test plants were sown separately for each species and/or resistant biotype. For the pre-emergence treatment, the active ingredients, which had been suspended or emulsified in water, were applied directly after sowing by means of finely distributing nozzles. The containers were irrigated gently to promote germination and growth and subsequently covered with transparent plastic hoods until the plants had rooted. This cover caused uniform germination of the test plants, unless this had been impaired by the active ingredients. For the post-emergence treatment, the test plants were first grown to a height of 3 to 15 cm, depending on the plant habit, and only then treated with the active ingredients which had been suspended or emulsified in water. For this purpose, the test plants were either sown directly and grown in the same containers, or they were first grown separately as seedlings and transplanted into the test containers a few days prior to treatment. Depending on the species, the plants were kept at 10-25° C. or 20-35° C., respectively. The test period extended to 20 days after treatment. During this time, the plants were tended, and their response to the individual treatments was evaluated. The evaluation was carried out by using a scale from 0 to 100. 100 means no emergence of the plants or complete destruction of at least the above-ground parts, and 0 means no damage, or normal course of growth. Data shown are the mean of two replications.
# L-Glufosinate: 5% EC formulation
# Triaziflam: 5% EC formulation
# Methiozolin: 250 g/l SC formulation
smiles,measurement,setting,value
"CP(=O)(O)CC[C@H](N)C(=O)O [L-Glufosinate, (2S)-2-amino-4-[hydroxy(methyl)phosphinoyl]butyric acid]","Herbicidal activity against LOLMU, Found","L-Glufosinate alone 75 g ai/ha, scale 0-100 (100 = complete destruction), Example 1",0
same,"Herbicidal activity against LOLMU, Found","L-Glufosinate alone 75 g ai/ha, scale 0-100, Example 2",0
"Cc1ccsc1C1=NOC(C)(COCc2c(F)cccc2F)C1 (stereo not drawn) [methiozoline, methiozolin]","Herbicidal activity against LOLMU, Found","methiozoline alone 125 g ai/ha, scale 0-100, Example 2",0
same,"Herbicidal activity against LOLMU, Found","methiozoline alone 250 g ai/ha, scale 0-100, Example 2",25
Cc1cc(C)cc(OCC(C)Nc2nc(N)nc(C(C)(C)F)n2)c1 (stereo not drawn) [triaziflam],"Herbicidal activity against LOLMU, Found","triaziflam alone 125 g ai/ha, scale 0-100, Example 1",10
same,"Herbicidal activity against LOLMU, Found","triaziflam alone 250 g ai/ha, scale 0-100, Example 1",55
